Measurements as given in US7524968B2, “2-pyridinylcycloalkylbenzamide derivatives and their use as fungicides” (Bayer Cropscience S.A., priority 2004, dated 2009).

How the values were obtained:
Conditions in all cases: 330 ppm; result in words
Botrytis cinerea = test: Effectiveness on Botrytis cinerea (comparison compounds of WO 01/11965); format: in vivo
Alternaria brassicae = test: In vivo test on Alternaria brassicae (leaf spot of crucifers) on radish plants
Procedure: The active ingredient tested is prepared by potter homogenization in a concentrated suspension type formulation at 100 g/l. This suspension is then diluted with water to obtain the desired active material concentration.
Radish plants (Pernot variety) in starter cups, sown on a 50/50 peat soil-pozzolana substrate and grown at 18-20° C., are treated at the cotyledon stage by spraying with the aqueous suspension described above.
Plants, used as controls, are treated with an aqueous solution not containing the active material.
After 24 hours, the plants are contaminated by spraying them with an aqueous suspension of Alternaria brassicae spores (40,000 spores per cm^3). The spores are collected from a 12-13-day-old culture.
The contaminated radish plants are incubated for 6-7 days at about 18° C., under a humid atmosphere.
Grading is carried out 6 to 7 days after the contamination, in comparison with the control plants.

Peronospora parasitica = test: Efficacy against Peronospora parasitica (comparison compound of WO 01/11965); format: in vivo

Compound | effectiveness on Botrytis cinerea (Botrytis cinerea) | effectiveness on Alternaria brassicae (Alternaria brassicae) | efficacy against Peronospora parasitica (Peronospora parasitica)
CNC(=O)C(Cc1ncc(C(F)(F)F)cc1Cl)NC(=O)c1ccc(OC)cc1 (stereo not drawn) [compound 315, N-{1-methylcarbamoyl-2-[3-chloro-5-(trifluoromethyl)-2-pyridinyl]ethyl}-4-methoxybenzamide] | zero effectiveness | – | –
CCNC(=O)C(Cc1ncc(C(F)(F)F)cc1Cl)NC(=O)c1ccc(Cl)cc1 (stereo not drawn) [compound 306, N-{1-ethylcarbamoyl-2-[3-chloro-5-(trifluoromethyl)-2-pyridinyl]ethyl}-4-chlorobenzamide] | zero effectiveness | – | –
CCNC(=O)C(Cc1ncc(C(F)(F)F)cc1Cl)NC(=O)c1ccccc1 (stereo not drawn) [compound 304, N-{1-ethylcarbamoyl-2-[3-chloro-5-(trifluoromethyl)-2-pyridinyl]-ethyl}-benzamide] | zero effectiveness | – | –
CNC(=O)C(Cc1ncc(C(F)(F)F)cc1Cl)NC(=O)c1ccccc1 (stereo not drawn) [compound 314, N-{1-methylcarbamoyl-2-[3-chloro-5-(trifluoromethyl)-2-pyridinyl]ethyl}-benzamide] | zero effectiveness | – | –
CNC(=O)C(Cc1ncc(C(F)(F)F)cc1Cl)NC(=O)c1ccc(-c2ccccc2)cc1 (stereo not drawn) [compound 316, N-{1-methylcarbamoyl-2-[3-chloro-5-(trifluoromethyl)-2-pyridinyl]-ethyl}-4-phenylbenzamide] | zero effectiveness | poor effectiveness | –
O=C(Cc1cccs1)NCc1ncc(C(F)(F)F)cc1Cl [compound 101, N-{[3-chloro-5-(trifluoromethyl)-2-pyridinyl]methyl}-5-thienylacetamide] | no efficacy | poor efficacy | no efficacy
CCNC(=O)C(Cc1ncc(C(F)(F)F)cc1Cl)NC(=O)c1ccccc1Br (stereo not drawn) [compound 310, N-{1-ethylcarbamoyl-2-[3-chloro-5-(trifluoromethyl)-2-pyridinyl]ethyl}-2-bromobenzamide] | zero effectiveness | – | –
CCNC(=O)C(Cc1ncc(C(F)(F)F)cc1Cl)NC(=O)c1cccc([N+](=O)[O-])c1 (stereo not drawn) [compound 307, N-{1-ethylcarbamoyl-2-[3-chloro-5-(trifluoromethyl)-2-pyridinyl]ethyl}-3-nitrobenzamide] | zero effectiveness | poor effectiveness | –
